Series [1] relates to M14. The series is described as follows: Cytotoxicity against human M14 cells measured after 72 hrs […]. In kind it is functional, cell-based. Particulars: M14, 72 h. (In general: Immunoblotting shows a protein as a band on a membrane.)
Series [2] deals with M14. As to the kind of experiment: Cytotoxicity against paclitaxel resistant human M14 cells measured after 72 hrs […]. In kind it is functional, cell-based. Particulars: M14, 72 h.
A short description of series [3]: Induction of apoptosis in human A375/TxR cells assessed as apoptotic cells at 10 nM measured for 24 hrs by annexin VFITC /PI staining based analysis (reference value: […]). The class given is functional.
A further series deals with A-375. The series is described as follows: Antiproliferative activity against human A-375 cells assessed as cell growth inhibition incubated for 72 hrs by MTS assay. The class given is functional, cell-based. To be noted: A-375, 72 h. (Tetrazolium assays rely on reduction of a dye to a coloured formazan, in cell work by metabolically active cells.)
A short description of series [4]: Metabolic stability in mouse liver microsomes assessed as intrinsic clearance in presence of NADPH regenerating system by UPLC-MS analysis. The class given is ADME, Microsome. To be noted: read-out: CLH. Background: Liver microsomes are vesicles of endoplasmic reticulum, rich in cytochrome P450 enzymes.
Series [5] is described as follows: Metabolic stability in human liver microsomes assessed as half life in presence of NADPH regenerating system by UPLC-MS analysis. The class given is ADME, Microsome. Particulars: microsomes.
A short description of series [6]: Metabolic stability in human liver microsomes assessed as intrinsic clearance in presence of NADPH regenerating system by UPLC-MS analysis. In kind it is ADME, Microsome. To be noted: read-out: CLH.
Another series concerns RPMI-7951. The series is described as follows: Antiproliferative activity against human RPMI-7951 cells assessed as cell growth inhibition incubated for 72 hrs by MTS assay. To be noted: RPMI-7951, 72 h. In kind it is functional, cell-based.
Another series deals with MDA-MB-231. The series is described as follows: Antiproliferative activity against human MDA-MB-231 cells assessed as cell growth inhibition incubated for 72 hrs by MTS assay. Particulars: MDA-MB-231, 72 h. The class given is functional, cell-based.
The next series relates to MDA-MB-453. As to the kind of experiment: Antiproliferative activity against human MDA-MB-453 cells assessed as cell growth inhibition incubated for 72 hrs by MTS assay. In kind it is functional, cell-based. Particulars: MDA-MB-453, 72 h.
A further series concerns SK-BR-3. As to the kind of experiment: Antiproliferative activity against human SK-BR-3 cells assessed as cell growth inhibition incubated for 72 hrs by MTS assay. In kind it is functional, cell-based. Particulars: SK-BR-3, 72 h.
The nature of series [7]: Induction of cell cycle arrest in human A375/TxR cells assessed as accumulation at G2/M phase at 10 nM measured for 24 hrs by PI staining based flow cytometry analysis.
In series [8] the test system is M14. The series is described as follows: Antiproliferative activity against human M14 cells assessed as cell growth inhibition incubated for 72 hrs by MTS assay. In kind it is functional, cell-based. Particulars: M14, 72 h.
Series [9] can be described thus: Metabolic stability in mouse liver microsomes assessed as half life in presence of NADPH regenerating system by UPLC-MS analysis. The class given is ADME, Microsome. To be noted: microsomes.

As usually defined, the IC50 is the concentration at which inhibition is half-maximal.

With `CC(=O)O[C@H]1C(=O)[C@@]2(C)[C@H]([C@H](OC(=O)c3ccccc3)[C@]3(O)C[C@H](OC(=O)[C@H](O)[C@@H](NC(=O)c4ccccc4)c4ccccc4)C(C)=C1C3(C)C)[C@]1(OC(C)=O)CO[C@@H]1C[C@@H]2O` [PACLITAXEL], the IC50 in the series with M14 [1] came to 0.5 nM; in the series with M14 [2] it was 186 nM. In addition, the Activity in [3] was 11.8%.

Turning to `COc1cc(C(=O)c2cccc(-c3ccc(C)c(O)c3)n2)cc(OC)c1OC`, the IC50 in the series with A-375 amounted to 2 nM; in the series with RPMI-7951, 2.8 nM; with MDA-MB-231, 3.3 nM; in the series with MDA-MB-453, 1.1 nM; in the series with SK-BR-3, 4.1 nM; in the series with M14 [8], 2 nM. Moreover, the CLint scaled in [4] stood at 57.3 mL/min/kg; in series [6] it was 116 mL/min/kg. In addition, the t1/2 in series [5] was 10.8 min. The Activity in [7] is 60%.

For `COc1cc(C(=O)c2cccc(-c3ccc(C)cc3)n2)cc(OC)c1OC`, the half-inhibitory concentration (IC50) came to 2.4 nM with A-375; 3.5 nM with RPMI-7951; 5.3 nM in the series with MDA-MB-231; 3.9 nM in the series with MDA-MB-453; 4.2 nM in the series with SK-BR-3; 3.1 nM with M14 [8]. The CLint scaled in series [4] was 1050 mL/min/kg; in series [6], 317 mL/min/kg. The values for the t1/2 in series [5] and in [9] were 4.2 min and 3 min, respectively.

As to `COc1cc2c(c(OC)c1OC)-c1ccc(OC)c(=O)cc1[C@@H](NC(C)=O)CC2` [COLCHICINE], in the series with M14 [2], the half-inhibitory concentration (IC50) was > 1000 nM.

`COc1cc(C(=O)c2c[nH]c(-c3ccc(C)c(O)c3)n2)cc(OC)c1OC`: the IC50 with A-375 came out at 41.2 nM; in the series with RPMI-7951, 78.4 nM; in the series on MDA-MB-231, 24.3 nM; in the series on MDA-MB-453, 23.2 nM; with SK-BR-3, 57.6 nM; in the series with M14 [8], 32.4 nM. Also, the CLint scaled is 40.6 mL/min/kg in [4] and 8.8 mL/min/kg in series [6]. Besides, the results for the t1/2 in series [5] and in [9] were 142.2 min and 84.6 min, respectively.

Consider `COc1cc(C(=O)c2cc(C)cc(-c3ccc(C)cc3)n2)cc(OC)c1OC`, for which the IC50 turned out to be 4.3 nM with A-375; 6.4 nM in the series with RPMI-7951; 16 nM in the series on MDA-MB-231; 9.7 nM with MDA-MB-453; 5.5 nM in the series on SK-BR-3; 4.4 nM with M14 [8]. Also, the CLint scaled was determined as 824 mL/min/kg in series [4] and 28.8 mL/min/kg in series [6]. The results for the t1/2 in series [5] and in series [9] were 43.2 min and 4.2 min, respectively.

`CCc1c(OC)cc(C(=O)c2cccc(-c3ccc(C)c(O)c3)n2)cc1OC`: the IC50 in the series with A-375 turned out to be 15.1 nM; with RPMI-7951, 13.9 nM; in the series with MDA-MB-231, 37.4 nM; with MDA-MB-453, 8.7 nM; in the series with SK-BR-3 it was 10.1 nM; in the series on M14 [8], 24.8 nM. The CLint scaled in series [4] was 16.2 mL/min/kg; in series [6], 22.9 mL/min/kg. The t1/2 in [5] was found to be 54.6 min; in series [9], 211.8 min.

Consider `COc1cc(C(=O)c2cncc(-c3ccc(C)c(O)c3)n2)cc(OC)c1OC`, for which the IC50 in the series on A-375 was found to be 5.9 nM; in the series on RPMI-7951 it was 5.2 nM; in the series with MDA-MB-231, 8 nM; in the series on MDA-MB-453, 4 nM; with SK-BR-3 it was 26.7 nM; with M14 [8], 5.2 nM. The figures for the CLint scaled in [4] and in series [6] were 28.7 mL/min/kg and 26.6 mL/min/kg, respectively. Further, the t1/2 came out at 46.8 min in series [5] and 119.4 min in [9].

Take `COc1cc(-c2n[nH]c3ccc(-c4ccc(C)c(O)c4)nc23)cc(OC)c1OC`: the 50% inhibitory concentration (IC50) with A-375 is 21.1 nM; in the series with RPMI-7951 it was 22.9 nM; with MDA-MB-231, 22.3 nM; in the series on MDA-MB-453 it was 54.9 nM; with SK-BR-3, 65.6 nM; in the series with M14 [8] it was 18.5 nM. Besides, the CLint scaled in series [4] is 20.5 mL/min/kg; in series [6], 6.1 mL/min/kg. Moreover, the t1/2 is reported as 205.2 min in series [5] and 167.4 min in series [9].

`COc1cc(C(=O)c2nc(-c3ccc(C(F)F)cc3)ccc2F)cc(OC)c1OC`: the half-inhibitory concentration (IC50) stood at 2.6 nM in the series with A-375; 2.1 nM in the series with RPMI-7951; 4.3 nM in the series on MDA-MB-231; 4.2 nM with MDA-MB-453; 2.4 nM in the series with SK-BR-3; 3.2 nM in the series with M14 [8]. In addition, the CLint scaled in [4] is 38.2 mL/min/kg; in series [6], 38.1 mL/min/kg. For the same compound, the t1/2 came to 33 min in series [5] and 90 min in [9].

Values taken from ChEMBL document CHEMBL5029155, “Design, Synthesis, and Biological Evaluation of Stable Colchicine-Binding Site Tubulin Inhibitors 6-Aryl-2-benzoyl-pyridines as Potential Anticancer Agents” (J Med Chem, 2021).
